According to ChEMBL document CHEMBL1201862, “PubChem BioAssay data set” (2004):
Active and inactive are the calls of the source.

How the values were obtained:
[1] = A Cell Based Secondary Assay To Explore Cytotoxicity of Compounds that Sensitize Mycobacterium Tuberculosis to Beta-Lactam Antibiotics.; type: functional
Trypsin = Trypsin (Sus scrofa, UniProt P00761); assay: porcine trypsin inhibitors, dose response, selectivity assay for Rce1 protease inhibitor project, biochemical, quenched peptide fluorescence, cherry-pick (AID 488789)
Chain of Trypsin (P00761 whole entry): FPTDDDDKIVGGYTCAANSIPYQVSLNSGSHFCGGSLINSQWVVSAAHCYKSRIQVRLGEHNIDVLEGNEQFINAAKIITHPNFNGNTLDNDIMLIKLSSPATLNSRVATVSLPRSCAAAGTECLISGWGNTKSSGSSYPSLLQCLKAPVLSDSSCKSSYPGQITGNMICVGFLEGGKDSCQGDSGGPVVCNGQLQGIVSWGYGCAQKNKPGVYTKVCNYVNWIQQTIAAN

Cytochrome P450 2C9 = Cytochrome P450 2C9 (Homo sapiens, UniProt P11712); settings: Potency
Chain of Cytochrome P450 2C9 (P11712 whole entry): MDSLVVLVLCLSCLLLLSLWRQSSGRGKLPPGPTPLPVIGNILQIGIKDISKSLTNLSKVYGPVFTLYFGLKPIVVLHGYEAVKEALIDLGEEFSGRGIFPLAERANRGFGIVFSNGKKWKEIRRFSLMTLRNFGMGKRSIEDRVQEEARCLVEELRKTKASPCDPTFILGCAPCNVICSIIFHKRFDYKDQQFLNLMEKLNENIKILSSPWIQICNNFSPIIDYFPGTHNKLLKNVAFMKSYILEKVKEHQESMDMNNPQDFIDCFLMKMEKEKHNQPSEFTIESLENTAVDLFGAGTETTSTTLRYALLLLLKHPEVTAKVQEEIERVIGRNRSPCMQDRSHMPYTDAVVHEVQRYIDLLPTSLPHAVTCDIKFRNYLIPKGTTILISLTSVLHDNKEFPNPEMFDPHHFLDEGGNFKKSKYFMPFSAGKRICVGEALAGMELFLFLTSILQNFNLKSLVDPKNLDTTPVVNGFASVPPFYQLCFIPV

[2] = target: T1, Mannose-6-phosphate isomerase (Homo sapiens, UniProt P34949); assay: human PMI inhibitors, high substrate, primary screen, biochemical, fluorescence intensity, high mannose 6-phosphate (AID 1220)
T1 sequence (P34949 whole entry): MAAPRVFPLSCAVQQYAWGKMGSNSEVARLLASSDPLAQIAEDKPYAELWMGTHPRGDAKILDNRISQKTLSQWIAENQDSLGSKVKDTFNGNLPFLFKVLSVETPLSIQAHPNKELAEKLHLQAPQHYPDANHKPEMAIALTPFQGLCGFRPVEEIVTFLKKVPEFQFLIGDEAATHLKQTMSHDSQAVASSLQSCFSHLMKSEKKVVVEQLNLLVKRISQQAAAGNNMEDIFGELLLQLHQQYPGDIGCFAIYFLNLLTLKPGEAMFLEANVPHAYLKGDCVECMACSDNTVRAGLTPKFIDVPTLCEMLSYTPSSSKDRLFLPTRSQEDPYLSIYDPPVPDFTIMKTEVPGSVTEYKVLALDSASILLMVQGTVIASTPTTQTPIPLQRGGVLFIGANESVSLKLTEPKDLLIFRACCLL

[3] = microbe, parasite or virus in culture; type: functional; settings: Mycobacterium tuberculosis
Streptokinase A = target: T2, Streptokinase A (Streptococcus pyogenes serotype M1, UniProt P10520); assay: S. pyogenes streptokinase expression inhibitors, potency, dose response, plasminogen activation absorbance, OD405 (AID 1914); type: functional, Streptococcus pyogenes M1 GAS;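 further: secreted streptokinase activity via plasminogen activation per viability signal from cell pellet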
T2 sequence (P10520 whole entry): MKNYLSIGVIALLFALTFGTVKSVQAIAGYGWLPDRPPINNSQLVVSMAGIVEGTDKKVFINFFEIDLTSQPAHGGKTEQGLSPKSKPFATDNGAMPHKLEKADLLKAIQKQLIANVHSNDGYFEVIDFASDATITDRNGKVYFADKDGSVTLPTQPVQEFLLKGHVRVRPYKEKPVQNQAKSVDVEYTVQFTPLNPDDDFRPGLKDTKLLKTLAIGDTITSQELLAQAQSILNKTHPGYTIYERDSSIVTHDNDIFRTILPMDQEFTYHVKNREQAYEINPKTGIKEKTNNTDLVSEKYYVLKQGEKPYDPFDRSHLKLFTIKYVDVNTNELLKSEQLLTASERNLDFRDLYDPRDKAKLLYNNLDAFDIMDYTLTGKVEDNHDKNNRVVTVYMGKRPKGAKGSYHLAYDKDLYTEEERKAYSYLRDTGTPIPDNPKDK

Beta-galactosidase = Beta-galactosidase (Escherichia coli, UniProt Q8VNN2); assay: beta-galactosidase enzyme inhibitors and activators, dose response, artefact control for CCR6 antagonist project, biochemical, E. coli enzyme, set 3 (AID 504712); type: functional
Chain of Beta-galactosidase (Q8VNN2 whole entry): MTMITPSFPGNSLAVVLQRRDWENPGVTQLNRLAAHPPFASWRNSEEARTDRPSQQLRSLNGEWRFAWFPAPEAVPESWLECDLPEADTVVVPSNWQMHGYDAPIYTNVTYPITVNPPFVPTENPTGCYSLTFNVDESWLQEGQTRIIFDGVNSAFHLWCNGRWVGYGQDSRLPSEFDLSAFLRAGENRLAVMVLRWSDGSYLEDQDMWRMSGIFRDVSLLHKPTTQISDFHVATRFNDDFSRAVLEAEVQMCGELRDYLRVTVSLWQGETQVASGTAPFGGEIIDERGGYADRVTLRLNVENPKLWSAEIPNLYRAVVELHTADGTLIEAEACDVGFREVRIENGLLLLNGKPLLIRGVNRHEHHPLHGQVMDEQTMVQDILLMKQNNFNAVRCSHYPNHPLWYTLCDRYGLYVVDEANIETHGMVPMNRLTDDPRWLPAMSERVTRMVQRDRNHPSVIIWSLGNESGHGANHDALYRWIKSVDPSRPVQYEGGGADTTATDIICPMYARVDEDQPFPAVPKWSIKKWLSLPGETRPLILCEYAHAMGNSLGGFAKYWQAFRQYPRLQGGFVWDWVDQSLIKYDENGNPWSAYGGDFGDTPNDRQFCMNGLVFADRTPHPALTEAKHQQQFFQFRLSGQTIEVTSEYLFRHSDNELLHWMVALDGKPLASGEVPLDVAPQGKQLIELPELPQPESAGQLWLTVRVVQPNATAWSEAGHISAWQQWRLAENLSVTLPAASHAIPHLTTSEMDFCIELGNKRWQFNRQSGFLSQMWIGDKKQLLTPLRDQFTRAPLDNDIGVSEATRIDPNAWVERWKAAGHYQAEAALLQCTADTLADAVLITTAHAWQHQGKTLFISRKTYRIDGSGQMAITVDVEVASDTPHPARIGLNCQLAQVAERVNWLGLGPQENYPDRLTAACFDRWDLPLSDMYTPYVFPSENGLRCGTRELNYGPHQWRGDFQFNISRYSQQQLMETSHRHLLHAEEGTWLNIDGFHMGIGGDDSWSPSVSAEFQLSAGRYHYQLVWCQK

[4] = Luminescence Cell-Based Dose Retest to Confirm Inhibitors of Cancer Stem Cells. [Related pubchem assays (depositor defined):AID2717, AID2721]; type: functional, Homo sapiens; settings: Homo sapiens
INS1 = assay: beta cell apoptosis inhibitors, cytokine rescue, dose response, luminescence, retest (AID 449756); type: functional, cell-based; settings: Rattus norvegicus;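 further: cell death triggered by IL-1 beta plus TNF-alpha plus IFN-gamma mixture; protective hits raise ATP signal compared with cytokine alone wells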
Streptococcus = assay: Group A Streptococcus viability loss, dose response, counter-screen for streptokinase expression inhibitor project, luminescence, BacTiterGlo (AID 1915); type: functional, organism-based; settings: Streptococcus;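 further: potency for reduction of bacterial viability or growth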
[5] = test system: Streptococcus sp. 'group A'; assay: growth inhibition of control SK(-) GAS strain, dose response, counter-screen for streptokinase expression inhibitor project, luminescence, kanamycin, BacTiterGlo, confirmation (AID 1900); type: functional, organism-based; settings: Streptococcus sp. 'group A'
Cytochrome P450 3A4 [6] = target: T3, Cytochrome P450 3A4 (Homo sapiens, UniProt P08684)
[7] = target: DNA dC->dU-editing enzyme APOBEC-3G (Homo sapiens, UniProt Q9HC16); assay: Dose Response confirmation of small molecule APOBEC3G DNA Deaminase Inhibitors via a fluorescence-based single-stranded DNA deaminase assay. [Related pubchem assays (depositor defined):AID493012, AID493028]; type: functional
[8] = target: Glucose-6-phosphate 1-dehydrogenase (Homo sapiens, UniProt P11413); assay: human G6PD enzyme inhibitors, dose response, selectivity assay for P. falciparum G6PD inhibitor project, biochemical, fluorescence (AID 504792); type: functional
[9] = target: Protein-tyrosine kinase 2-beta (Homo sapiens, UniProt Q14289);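 further: potency of inhibitors of PYK2 kinase phosphorylation of poly-GT substrate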
[10] = target: T4, Methionyl-tRNA synthetase, putative (Trypanosoma brucei brucei, UniProt Q38C91); type: functional, Trypanosoma brucei brucei strain 927/4 GUTat10.1
T4 sequence (Q38C91 whole entry): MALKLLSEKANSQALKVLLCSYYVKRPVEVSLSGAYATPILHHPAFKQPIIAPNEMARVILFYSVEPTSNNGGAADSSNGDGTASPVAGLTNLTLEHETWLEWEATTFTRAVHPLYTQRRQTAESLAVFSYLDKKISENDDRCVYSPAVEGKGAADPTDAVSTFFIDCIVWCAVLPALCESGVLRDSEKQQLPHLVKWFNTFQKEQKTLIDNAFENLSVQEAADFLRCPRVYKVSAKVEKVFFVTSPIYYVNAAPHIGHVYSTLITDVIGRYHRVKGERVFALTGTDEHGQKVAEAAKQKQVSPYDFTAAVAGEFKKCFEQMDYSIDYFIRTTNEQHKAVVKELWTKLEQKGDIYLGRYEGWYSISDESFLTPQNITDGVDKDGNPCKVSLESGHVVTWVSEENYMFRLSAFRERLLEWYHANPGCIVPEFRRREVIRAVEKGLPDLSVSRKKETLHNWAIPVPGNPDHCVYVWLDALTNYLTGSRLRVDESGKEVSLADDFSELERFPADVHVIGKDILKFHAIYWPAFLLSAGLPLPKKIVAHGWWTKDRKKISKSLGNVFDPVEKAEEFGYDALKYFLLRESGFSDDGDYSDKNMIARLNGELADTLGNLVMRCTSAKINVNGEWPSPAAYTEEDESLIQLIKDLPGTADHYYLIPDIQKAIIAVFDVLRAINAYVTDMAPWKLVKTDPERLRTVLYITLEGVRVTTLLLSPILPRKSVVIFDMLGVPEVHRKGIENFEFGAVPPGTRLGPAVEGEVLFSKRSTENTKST

[11] = Luminescence Cell-Based Dose Confirmation HTS to Identify Activators of 5'UTR Stem-Loop Driven Alpha-Synuclein mRNA Translation in H4 Neuroglioblastoma Cells. [Related pubchem assays: 1829 (Project Summary), 1814 (Primary HTS)]; type: functional
H4 = assay: Luminescence Cell-Based Dose Response HTS to Identify Activators of 5'UTR Stem-Loop Driven Prion Protein mRNA Translation in H4 Neuroglioblastoma Cells. [Related pubchem assays: 1829 (Project Summary), 1814 (Primary HTS)]; type: functional; settings: Homo sapiens
[12] = Counterscreen for inhibitors of Trypanosoma brucei methionyl tRNA synthetase (MetRS): Luminescence-based cell-based high throughput dose response assay to identify compounds that are cytotoxic to Jurkat human T lymphocyte cells.; type: functional
[13] = Luminescence Cell-Based Dose Response HTS to Identify Activators of Luciferase Translation or Activity in H4 […] Cells. [Related pubchem assays: 1829 (Project Summary), 1814 (Primary HTS)]; type: functional
[14] = target: Dual specificity tyrosine-phosphorylation-regulated kinase 1A (Rattus norvegicus, UniProt Q63470); type: biochemical, Homo sapiens
[15] = target: T4, Methionyl-tRNA synthetase, putative; type: functional, Trypanosoma brucei brucei strain 927/4 GUTat10.1; remark: listed apart in the source
Estrogen receptor beta [16] = target: T5, Estrogen receptor beta (Homo sapiens, UniProt Q92731);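 further: recombinant ER-beta bound to coactivator SRC1 peptide in presence of estradiol agonist; inhibitors block coactivator peptide binding and lower the FRET signal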
Estrogen receptor beta [17] = target: T5, Estrogen receptor beta; assay: ERβ–SRC-3 coactivator interaction inhibitors, confirmation, orthogonal assay, biochemical, ELISA, streptavidin-HRP readout (AID 1060)
Estrogen receptor = target: T6, Estrogen receptor (Homo sapiens, UniProt P03372);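 further: potency for inhibiting coactivator peptide recruitment to the receptor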
T6 sequence (P03372 whole entry): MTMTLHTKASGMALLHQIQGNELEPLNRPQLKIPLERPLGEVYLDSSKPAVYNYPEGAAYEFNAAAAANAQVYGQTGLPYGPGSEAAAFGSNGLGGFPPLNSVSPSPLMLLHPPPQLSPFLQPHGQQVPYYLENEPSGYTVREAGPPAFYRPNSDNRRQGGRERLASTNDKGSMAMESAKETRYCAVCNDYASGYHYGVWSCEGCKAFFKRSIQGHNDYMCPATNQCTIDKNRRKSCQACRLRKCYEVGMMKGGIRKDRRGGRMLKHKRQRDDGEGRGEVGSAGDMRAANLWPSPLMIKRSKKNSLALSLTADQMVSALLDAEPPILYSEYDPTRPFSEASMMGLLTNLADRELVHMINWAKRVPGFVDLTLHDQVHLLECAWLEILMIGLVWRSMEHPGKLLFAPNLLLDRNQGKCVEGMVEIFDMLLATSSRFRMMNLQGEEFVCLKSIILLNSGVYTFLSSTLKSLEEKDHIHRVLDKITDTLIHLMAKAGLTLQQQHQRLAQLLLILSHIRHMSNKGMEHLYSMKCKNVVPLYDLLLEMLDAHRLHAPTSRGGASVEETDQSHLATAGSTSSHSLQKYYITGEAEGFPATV

Cytochrome P450 3A4 [18] = target: T3, Cytochrome P450 3A4; settings: Potency
Nonstructural protein 1 = Nonstructural protein 1 (Influenza A virus, UniProt Q194T2); type: functional, Influenza A virus (A/California/07/2009(H1N1))
[19] = THP-1 cell cytotoxicity, dose response, cytotoxicity control for non-replicating M. tuberculosis project (AID 489025); type: functional
[20] = Vero E6 cell cytotoxicity, dose response, cytotoxicity control for non-replicating M. tuberculosis project, secondary assay (AID 492998); type: functional, VeroE6; settings: Vero C1008
cells = type: functional
SUMO-activating enzyme [21] = target: T7, SUMO-activating enzyme (Homo sapiens, UniProt Q9UBT2); assay: inhibitors of in vitro SUMOylation cascade, primary screen, biochemical, HTRF, uHTS (AID 2006); type: protein-complex assay
[22] = target: T8, Voltage-gated N-type calcium channel alpha-1B subunit/Amyloid beta A4 precursor protein-binding family A member 1 (Homo sapiens, UniProt Q00975+Q02410); type: protein assay
T8 sequence (Q00975 whole entry): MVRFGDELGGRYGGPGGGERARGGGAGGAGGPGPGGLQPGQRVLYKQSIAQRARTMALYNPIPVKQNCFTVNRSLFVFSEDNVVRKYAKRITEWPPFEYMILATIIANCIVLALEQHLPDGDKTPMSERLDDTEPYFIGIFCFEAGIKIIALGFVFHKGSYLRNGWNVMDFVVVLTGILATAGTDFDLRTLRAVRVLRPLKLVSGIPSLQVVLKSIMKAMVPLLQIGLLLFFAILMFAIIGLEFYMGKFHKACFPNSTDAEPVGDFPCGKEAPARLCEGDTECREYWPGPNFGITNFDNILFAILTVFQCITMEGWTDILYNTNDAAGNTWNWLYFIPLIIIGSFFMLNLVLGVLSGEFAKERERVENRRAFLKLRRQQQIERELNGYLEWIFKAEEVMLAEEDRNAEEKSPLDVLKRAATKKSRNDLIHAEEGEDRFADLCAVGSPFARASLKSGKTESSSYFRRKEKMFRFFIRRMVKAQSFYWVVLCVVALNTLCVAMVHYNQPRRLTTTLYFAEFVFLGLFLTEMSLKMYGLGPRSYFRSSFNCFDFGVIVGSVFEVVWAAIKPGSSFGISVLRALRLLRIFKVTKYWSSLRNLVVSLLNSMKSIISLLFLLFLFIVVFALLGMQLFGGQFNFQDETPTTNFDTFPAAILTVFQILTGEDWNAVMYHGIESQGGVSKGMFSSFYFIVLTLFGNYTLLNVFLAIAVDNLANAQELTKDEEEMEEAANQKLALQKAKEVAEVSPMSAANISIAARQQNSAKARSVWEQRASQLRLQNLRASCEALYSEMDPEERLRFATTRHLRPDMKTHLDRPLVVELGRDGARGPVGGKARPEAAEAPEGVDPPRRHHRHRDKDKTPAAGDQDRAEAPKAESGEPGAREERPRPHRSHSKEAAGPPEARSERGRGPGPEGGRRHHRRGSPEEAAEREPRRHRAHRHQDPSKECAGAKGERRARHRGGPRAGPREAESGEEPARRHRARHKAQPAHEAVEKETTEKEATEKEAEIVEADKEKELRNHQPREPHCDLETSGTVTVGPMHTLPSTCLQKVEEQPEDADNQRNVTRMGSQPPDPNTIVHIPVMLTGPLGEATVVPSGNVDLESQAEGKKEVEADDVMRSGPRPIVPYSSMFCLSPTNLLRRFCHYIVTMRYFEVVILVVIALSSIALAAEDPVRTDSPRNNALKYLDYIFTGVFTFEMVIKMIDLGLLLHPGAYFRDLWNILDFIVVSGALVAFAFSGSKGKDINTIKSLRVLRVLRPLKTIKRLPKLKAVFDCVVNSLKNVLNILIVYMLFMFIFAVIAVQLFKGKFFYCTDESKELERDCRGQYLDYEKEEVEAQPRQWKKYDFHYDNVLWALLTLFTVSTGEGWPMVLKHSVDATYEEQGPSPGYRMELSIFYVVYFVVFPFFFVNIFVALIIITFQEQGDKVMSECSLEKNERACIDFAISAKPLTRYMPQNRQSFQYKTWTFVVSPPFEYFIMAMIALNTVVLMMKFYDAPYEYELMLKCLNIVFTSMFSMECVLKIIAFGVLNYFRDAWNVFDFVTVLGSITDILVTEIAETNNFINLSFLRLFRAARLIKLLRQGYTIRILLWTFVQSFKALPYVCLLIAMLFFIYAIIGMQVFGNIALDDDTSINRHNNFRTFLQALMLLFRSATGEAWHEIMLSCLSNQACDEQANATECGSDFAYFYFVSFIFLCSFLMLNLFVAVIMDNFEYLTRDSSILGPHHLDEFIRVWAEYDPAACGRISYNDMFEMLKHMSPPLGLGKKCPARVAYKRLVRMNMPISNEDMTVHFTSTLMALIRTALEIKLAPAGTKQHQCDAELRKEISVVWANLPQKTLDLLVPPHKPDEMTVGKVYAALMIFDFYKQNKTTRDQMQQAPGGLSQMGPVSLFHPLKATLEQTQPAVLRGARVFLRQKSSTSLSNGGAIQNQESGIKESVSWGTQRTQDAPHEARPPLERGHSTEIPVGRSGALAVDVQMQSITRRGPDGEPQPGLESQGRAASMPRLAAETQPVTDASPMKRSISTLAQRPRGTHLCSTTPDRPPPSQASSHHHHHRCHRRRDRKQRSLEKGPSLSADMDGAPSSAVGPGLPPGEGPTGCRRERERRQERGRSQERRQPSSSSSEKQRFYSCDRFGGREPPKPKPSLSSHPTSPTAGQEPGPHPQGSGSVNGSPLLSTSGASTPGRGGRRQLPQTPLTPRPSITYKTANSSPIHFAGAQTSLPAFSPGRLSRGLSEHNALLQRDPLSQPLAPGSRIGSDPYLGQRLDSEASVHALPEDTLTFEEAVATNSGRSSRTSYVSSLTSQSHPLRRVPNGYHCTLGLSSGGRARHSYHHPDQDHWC
T8 sequence (Q02410 whole entry): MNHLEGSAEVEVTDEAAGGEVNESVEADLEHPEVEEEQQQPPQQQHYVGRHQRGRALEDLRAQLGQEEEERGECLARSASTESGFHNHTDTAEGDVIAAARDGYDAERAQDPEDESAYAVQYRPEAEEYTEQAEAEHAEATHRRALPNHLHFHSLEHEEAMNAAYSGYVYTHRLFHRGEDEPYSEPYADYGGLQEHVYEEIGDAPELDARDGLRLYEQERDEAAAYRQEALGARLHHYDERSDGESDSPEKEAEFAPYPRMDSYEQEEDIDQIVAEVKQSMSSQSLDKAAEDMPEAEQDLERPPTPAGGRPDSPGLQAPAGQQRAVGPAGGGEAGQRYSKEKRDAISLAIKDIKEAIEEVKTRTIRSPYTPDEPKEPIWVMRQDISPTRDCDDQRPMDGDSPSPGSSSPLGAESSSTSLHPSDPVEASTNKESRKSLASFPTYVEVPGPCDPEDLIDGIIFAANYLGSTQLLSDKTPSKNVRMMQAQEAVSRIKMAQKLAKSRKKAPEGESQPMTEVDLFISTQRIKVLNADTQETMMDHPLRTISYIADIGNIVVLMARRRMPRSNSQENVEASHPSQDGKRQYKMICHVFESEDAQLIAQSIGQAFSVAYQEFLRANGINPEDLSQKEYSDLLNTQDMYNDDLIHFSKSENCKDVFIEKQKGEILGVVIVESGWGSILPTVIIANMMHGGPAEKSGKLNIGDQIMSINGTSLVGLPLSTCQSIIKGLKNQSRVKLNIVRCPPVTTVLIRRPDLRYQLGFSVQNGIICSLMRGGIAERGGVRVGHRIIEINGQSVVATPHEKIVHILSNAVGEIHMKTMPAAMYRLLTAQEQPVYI

SUMO-activating enzyme [23] = target: T7, SUMO-activating enzyme; assay: SUMOylation inhibitor hit validation, confirmation, SUMOylation inhibitor project, biochemical, AlphaScreen (AID 2018); type: functional
[24] = target: T8, Voltage-gated N-type calcium channel alpha-1B subunit/Amyloid beta A4 precursor protein-binding family A member 1; type: protein assay; remark: listed apart in the source

CCC(C)C(NC(N)=O)C(=O)Nc1ccc(OCc2ccccc2)cc1 (configuration not stated)
CC50 [1]: > 40 µM (active)

CC1CCc2c(sc(NC(=O)COC(=O)c3ccccc3NCc3ccco3)c2C#N)C1 (configuration not stated)
AC50 (Trypsin): 9.07 µM (active)

C=CCC1C=CC(Oc2ccc(F)cc2C)C(CO)O1 (configuration not stated)
AC50 (Cytochrome P450 2C9): 3.98 µM (inconclusive)

COc1ccc(CNc2cc(NCCCO)c([N+](=O)[O-])c3nonc23)cc1
IC50 [2]: > 50 µM (not active)

Cc1cc(C)[n+]2ncn(C)c2n1
IC50 [2]: > 50 µM (not active)

CCN(CC)c1ccc(C(=O)n2cnc3ccccc32)cc1
CC50 [1]: > 40 µM (active)

CN(/N=C/c1cc(Br)cc(Br)c1O)c1cccc(C(F)(F)F)n1
CC50 [3]: 17.6 µM (active)
EC50 (Streptokinase A): > 150 µM (not active)
IC50 (Beta-galactosidase): > 66.6 µM (inactive)
AC50 [4]: 5.94 µM (active)
AC50 (INS1): 10.7 µM (active)
EC50 (Streptococcus): 9.95 µM (active)
EC50 [5]: 0.58 µM (active)

Cc1ccc(NNS(=O)(=O)c2ccc(C)cc2)cc1
AC50 (Cytochrome P450 3A4 [6]): 28.2 µM (inconclusive)
IC50 [7]: 37.9 µM (active)
IC50 [8]: > 80 µM (inactive)

c1ccc2c3c([nH]c2c1)-c1n[nH]cc1CC3
IC50 [9]: 10.5 µM (not active)
IC50 [10]: 52.1 µM (inactive)
EC50 [11]: > 120 µM (not active)
EC50 (H4): > 120 µM (not active)
IC50 [12]: 83.4 µM (inactive)
EC50 [13]: 18.7 µM (active)
AC50 [14]: 3.79 µM (active)
IC50 [15]: 26.7 µM (inactive)

O=C(COC(=O)c1cccc(S(=O)(=O)N2CCc3ccccc3C2)c1)NCc1ccco1
IC50 (Estrogen receptor beta [16]): > 50 µM (not active)
IC50 (Estrogen receptor beta [17]): 0.0242 µM (not active)
IC50 (Estrogen receptor): 25 µM (active)

CC1CCC2C(=O)N3C(CCC(C)[C@H]3c3ccccc3Br)C(=O)N2C1c1ccccc1Br (some centres not stated)
AC50 (Cytochrome P450 2C9): 6.31 µM (inconclusive)
AC50 (Cytochrome P450 3A4 [18]): 1.26 µM (inconclusive)

CCOc1ccc(C(=O)N/N=C/c2cccc3cccnc23)cc1
IC50 (Beta-galactosidase): > 66.6 µM (inactive)
IC50 (Nonstructural protein 1): 11.4 µM (active)
CC50 [19]: 11.5 µM (active)
CC50 [20]: > 20 µM (active)
IC50 (cells): 2.75 µM (active)

Cc1cc(SCC(=O)c2ccccc2)n2ncc(-c3ccccc3)c2n1
CC50 [1]: 25.8 µM (active)

COc1ccc(-c2ccc3c(N)c(C(=O)c4ccc(OC)c(OC)c4)sc3n2)cc1
IC50 [9]: 4.28 µM (active)

CC(C)[C@@]1(NC(=O)[C@@H]2C=C3c4cccc5[nH]cc(c45)C[C@@H]3N(C)C2)O[C@]2(O)[C@H]3CCCN3C(=O)[C@H](Cc3ccccc3)N2C1=O
AC50 (Cytochrome P450 2C9): 10 µM (inconclusive)

CCc1ccc2nc(NC(=O)c3ccc4c(O)nc(CN5CCOCC5)nc4c3)sc2c1
IC50 (SUMO-activating enzyme [21]): 3.54 µM (active)
IC50 [22]: 6.59 µM (active)
IC50 (Estrogen receptor): 8.23 µM (active)
IC50 (SUMO-activating enzyme [23]): 7.19 µM (active)
IC50 [24]: > 50 µM (inactive)
